Test results taken from patent publication US20250186627A1, “RADIOLABELED COMPOUNDS TARGETING THE PROSTATE-SPECIFIC MEMBRANE ANTIGEN” (PROVINCIAL HEALTH SERVICES AUTHORITY, priority 2022, published 2025).

Test system: NRG-mice bearing LNCaP tumors
Assay: Biodistribution (and PET/SPECT imaging) in NRG-mice bearing LNCaP tumors
Assay type: in vivo
Conditions: Avg
Procedure: LNCaP cell line was obtained from ATCC (LNCaP clone FGC, CRL-1740). It was established from a metastatic site of left supraclavicular lymph node of human prostatic adenocarcinoma. Cells were cultured in PRMI 1640 medium supplemented with 10% FBS, penicillin (100 U/mL) and streptomycin (100 μg/mL) at 37° C. in a humidified incubator containing 5% CO2. Cells grown to 80-90% confluence were then washed with sterile phosphate-buffered saline (1×PBS pH 7.4) and trypsinization. The collected cells number was counted with a Hausser Scientific (Horsham, PA) Hemacytometer. Approximately 10 million LNCaP cells were inoculated into the left dorsal flank of immunocomprised NRG mice. The tumours were allowed to grow for 4-6 weeks and used for imaging and biodistribution studies when a volume of 200-600 mm^3 was reached.
PET imaging experiments were conducted using Siemens Inveon micro PET/CT scanner. SPECT imaging experiments were conducted using an MILabs micro SPECT/CT scanner. Each tumor bearing mouse was injected 4-6 MBq of ^68Ga or 18.5 MBq of ^177Lu labeled tracer through the tail vein under anesthesia (2% isoflurane in oxygen). The mice were allowed to recover and roam freely in their cage. At pre-defined time point, the mice were sedated again with 2% isoflurane in oxygen inhalation and positioned in the scanner. A 10-min CT scan was conducted first for localization and attenuation correction after segmentation for reconstructing the PET or SPECT images. Then, a 10-min static PET imaging or a one hour (30 min×2 frames) of static SPECT scan was performed to determined uptake in tumor and other organs. The mice were kept warm by a heating pad during acquisition.
For biodistribution studies, the mice were injected with the radiotracer as described above. The mice were anesthetized with 2% isoflurane inhalation, and euthanized by CO2 inhalation. Blood was withdrawn immediately from the heart, and the organs/tissues of interest were collected. The collected organs/tissues were weighed and counted using a Perkin Elmer (Waltham, MA) Wizard2 2480 gamma counter. The uptake in each organ/tissue was normalized to the injected dose (radioactivity) using a standard curve, and expressed as the percentage of the injected dose per gram of tissue (% ID/g).

SMILES: COc1ccc(CCCC(=O)NCC(=O)NC(CCCCNC(=O)CN2CCN(CC(=O)[O-])CCN(CC(=O)[O-])CCN(CC(=O)[O-])CC2)C(=O)NCC2CCC(C(=O)NC(Cc3c4ccccc4cc4ccccc34)C(=O)NCCCCC(NC(=O)NC(CCCC(=O)O)C(=O)O)C(=O)O)CC2)cc1.[177Lu+3] (centres unmarked) [^177Lu-HTK03170, reference compound]
- Biodistribution: Blood (24 h p.i.): 0.73 % ID/g
- Biodistribution: Bone (24 h p.i.): 0.18 % ID/g
- Biodistribution: Intestine (24 h p.i.): 0.18 % ID/g
- Biodistribution: LNCaP tumor (24 h p.i.): 42.96 % ID/g
- Biodistribution: Liver (24 h p.i.): 0.49 % ID/g
- Biodistribution: Muscle (24 h p.i.): 0.10 % ID/g
- Biodistribution: Salivary gland (24 h p.i.): 0.35 % ID/g
- Biodistribution: Spleen (24 h p.i.): 0.33 % ID/g
- Biodistribution: Urine (24 h p.i.): 19.02 % ID/g
- Biodistribution: kidney (24 h p.i.): 6.06 % ID/g
- Biodistribution: Blood (72 h p.i.): 0.07 % ID/g
- Biodistribution: Bone (72 h p.i.): 0.19 % ID/g
- Biodistribution: Intestine (72 h p.i.): 0.08 % ID/g
- Biodistribution: LNCaP tumor (72 h p.i.): 56.98 % ID/g
- Biodistribution: Liver (72 h p.i.): 0.27 % ID/g
- Biodistribution: Muscle (72 h p.i.): 0.15 % ID/g
- Biodistribution: Salivary gland (72 h p.i.): 0.31 % ID/g
- Biodistribution: Spleen (72 h p.i.): 0.36 % ID/g
- Biodistribution: Urine (72 h p.i.): 4.96 % ID/g
- Biodistribution: kidney (72 h p.i.): 4.30 % ID/g
